We go through 5 compounds from patent publication US8680148B2, “Metallo-desferrioxamine complexes and their use in the treatment of bacterial infections” (priority 2006, dated 2014).

Read-outs that look alike come from different tables or passages of the source.

The subject of data set [1] is Pseudomonas aeruginosa. Kind of data set: Minimal inhibitory concentration on planktonic Pseudomonas aeruginosa, 96-well plates. The format is cell-based. The note with it: low iron medium. The text has this:
The effect of gallium-desferrioxamine on planktonic Pseudomonas aeruginosa was first examined in a low iron medium. […] When in the stationary phase, Pseudomonas aeruginosa is not effectively killed by antibiotics.
(§1) Bacterial strains and culture conditions. Pseudomonas aeruginosa PAO1 or PAO1 derivatives were used for all experiments except where noted. For flow cell biofilm experiments, strains containing the GFP expression vector pMRP9-1 were used. Both flow cell and disc reactor biofilms were grown in 1% Tryptic Soy Broth (TSB) (Becton Dickinson, Sparks, Md.) as were planktonic cultures. All cultures were incubated at 37° C. unless otherwise indicated. For the static biofilm formation assay we used M63 minimal medium supplemented with glucose (0.2%), arginine (0.4%) and MgSO4 (1 mM).
The minimal inhibitory concentrations (MICs) of various agents were determined by using 96-well plates. Each well contained 100 μl of 1% TSB plus test compound. The inoculum was 5×10^5 Pseudomonas aeruginosa cells per well. To test the effect of agents on survival of stationary phase cells, cultures inoculated with 10^5 cells per ml and incubated for 18 h at 37° C. with aeration were used. The 18-h cultures were centrifuged. The pelleted cells were washed twice and suspended in a volume of fresh medium equal to the original culture volume. […] Viability was determined by plating dilutions on LB agar.

In data set [2] the test system is Pseudomonas aeruginosa biofilm. Description: Static biofilm formation in microtiter dish wells (crystal violet binding). The format is cell-based. The note with it: 18 h. Here is the method:
as §1
Pseudomonas aeruginosa biofilms were studied in three different ways. To evaluate gallium-desferrioxamine as a biofilm-blocking agent, the biofilm formation under static growth conditions was measured in microtiter dish wells. Biofilms were grown under static conditions in 96-well microtiter dishes for 18 h at 37° C. in M63 medium with or without added agents as indicated. Attached biomass was stained with crystal violet and the degree of crystal violet staining was measured.
FIG. 2 illustrates the biofilm growth of Pseudomonas aeruginosa cells in polyvinylchloride microtiter dish wells after treatment for 18 hours with desferrioxamine, Ga, gentamicin, or desferrioxamine-Ga. The concentrations used for each compound were 1 μM for DFO, Ga and DFO-Ga, and 0.1 μg/mL for Gm. Attached biofilm biomass was determined by measuring crystal violet binding.

For data set [3] the following is noted: ferric iron; cited from earlier work.
The conditions of data set [4]: divalent ions; cited from earlier work.
The test system of data set [5] is Pseudomonas aeruginosa biofilm. Kind of data set: Flow cell biofilms, confocal microscopy (GFP, propidium iodide). The data set is classed as cell-based. The note with it: for killing of cells in six-day old biofilm (propidium iodide staining): 24 h. The procedure: as §1
The development of biofilms under a continuous flow of medium was followed in microscope observation chambers. To visualize biofilms grown under a continuous flow of medium, flow cells and confocal microscopy with an incubation temperature of 25° C. were used. An agent was added to the medium at the beginning of an experiment to determine whether the agent prevented biofilm formation. To determine the affect of an agent on mature biofilms, the biofilm was allowed to grow for six days prior to addition of the test compound. To discriminate live and dead cells, propidium iodide (PI, 30 μM, Sigma Chemical Co., St. Louis, Mo.) was used.
FIG. 3 compares 3D-reconstructed confocal microscope images of six-day old biofilms of Pseudomonas aeruginosa cells expressing GFP treated for 24 hours with gentamicin (0.1 μg/mL), desferrioxamine (1 μM), gallium (1 μM), and gallium-desferrioxamine (1 μM).
FIGS. 4-8 compare the survival of P. aeruginosa in a six-day old biofilms stained with propidium iodide under with different treatment.

The conditions of data set [6]: trivalent aluminium ions; cited from earlier work.
Data set [7] relates to Pseudomonas aeruginosa biofilm. Description: Spinning disc reactor biofilms, viable cell counts. The format is cell-based. Conditions: 24 h. The procedure:
A spinning disc reactor as a third method was used to study biofilms. The biofilms grown under different conditions were tested and the activity of gallium-desferrioxamine against biofilms grown in a spinning disc reactor under continuous flow with high shear was examined. In this system biofilms are grown under a flow of medium and at high shear forces. After 24 h in a flow of medium, the polycarbonate chips with attached biofilm bacteria were removed from the spinning disc and washed 3 times in PBS. All incubations for spinning disc experiments were at 37° C. These biofilms were then exposed to the indicated agents in water for 24 h. Cells that detached from the biofilm during the treatment were enumerated by plating on LB agar. To estimate the number of remaining attached biofilm cells, the discs were placed in 1 ml PBS and the cells were dispersed by using a tissue homogenizer (Brinkman Homogenizer, Westbury, N.Y.). Viable cell numbers were determined by plating on LB agar. […] Furthermore, when gallium-desferrioxamine and gentamicin are used together, viability is reduced by almost 6 logs, leaving only a few viable cells.

Data set [8] relates to Staphylococcus aureus (MRSA strain) biofilm. Description: Spinning disc reactor biofilms of MRSA S. aureus. The data set is classed as cell-based. Conditions: 1 mM, 24 h. Here is the method:
The effect of gallium-desferrioxamine against the drug resistant bacterial was investigated. The efficacy of DFO-Ga against common biofilm pathogens Staphylococcus aureus (MRSA strain) and Escherichia coli was examined. Biofilms were grown using the spinning disc reactor system as above. Spinning disc reactor biofilms with E. coli or MRSA S. aureus were treated for 24 h. The concentration of DFO-Ga in both treatments was (1 mM). In the E. coli treatment, the concentration of Gm was 10 μg/ml and for the combination of DFO-Ga (1 mM) and Gm (10 μg/ml).
As shown FIG. 12B, DFO-Ga was able to reduce the viable Staphylococcus aureus biofilm bacteria by approximately 3 log units.

For data set [9], the system named is pvdA-GFP iron starvation promoter fusion. Description: Iron starvation reporter (pvdA-GFP) fluorescence in PAO1. The data set is classed as cell-based, Pseudomonas aeruginosa. The note with it: 1 mM, 1 h at 37° C. The procedure:
To study the effect of DFO-Ga on iron regulation in the cell, a P. aeruginosa PAO1 strain-carrying GFP fused to an iron starvation promoter (pvdA-GFP) was constructed. The promoter is induced under iron limitation. Free living PAO1 carrying pvdA-GFP fusion, i.e., an iron starvation reporter fusion, 10^9 cell/ml in 1% TSB were exposed to […] Ga (1 mM), DFO (1 mM), or DFO-Ga (1 mM) for 1 h at 37° C.

The test system of data set [10] is stationary phase Pseudomonas aeruginosa cells. Description: Survival of stationary phase Pseudomonas aeruginosa cells (plating on LB agar). The format is cell-based. Conditions: 24 h. Here is the method:
The minimal inhibitory concentrations (MICs) of various agents were determined by using 96-well plates. Each well contained 100 μl of 1% TSB plus test compound. The inoculum was 5×10^5 Pseudomonas aeruginosa cells per well. To test the effect of agents on survival of stationary phase cells, cultures inoculated with 10^5 cells per ml and incubated for 18 h at 37° C. with aeration were used. The 18-h cultures were centrifuged. The pelleted cells were washed twice and suspended in a volume of fresh medium equal to the original culture volume. The cells were incubated at 37° C. for an additional 2 h with shaking and then exposed to the test compounds at the indicated concentrations for 24 h. Viability was determined by plating dilutions on LB agar. FIG. 1 illustrates the survival of stationary phase Pseudomonas aeruginosa cells treated for 24 hours with desferrioxamine (DFO), gentamicin (Gm), gallium (Ga), gallium-desferrioxamine (DFO-Ga), DFO and Gm, Ga and Gm, and DFO-Ga and Gm. The concentrations used for each compound were 0.1 mM (shaded) or 1 mM (dark) for DFO, Ga or DFO-Ga and […] for Gm. […] Because gallium-desferrioxamine and gentamicin exert their antimicrobial effects via different mechanisms, the two agents were combined and the combined treatment results in a six-log reduction in viable cells.

Data set [11] concerns P. aeruginosa clinical isolates biofilms. Kind of data set: Spinning disc reactor biofilms of 15 clinical isolates. The data set is classed as cell-based, Pseudomonas aeruginosa. Conditions: 24 h. Here is the method: To verify that the sensitivities observed with laboratory strain of P. aeruginosa (PAO1) would hold with other clinical isolates of the bacterium, 15 clinical isolates of the same bacterium obtained from CF, eye and wound infected patients were screened. The group of isolates tested included mucoid strains, and strains with a variety of drug resistance profiles. The spinning-disc biofilm reactor system was utilized. In this system biofilms are grown under a flow of medium and at high shear forces. After 24 h in a flow of medium the polycarbonate chips with attached biofilm bacteria were removed from the spinning disc and washed 3 times in PBS. All incubations for spinning disc experiments were at 37° C. These biofilms were then exposed to Gm (50 μg/ml), DFO-Ga (1 mM) or a combination of gallium-desferrioxamine […] in water for 24 h. To estimate the number of remaining attached biofilm cells, we placed the discs in 1 ml PBS and dispersed the cells by using a tissue homogenizer (Brinkman Homogenizer, Westbury, N.Y.). Viable cell numbers were determined by plating on LB agar. […]

For data set [12] the following is noted: systemic treatment, ischemia and reperfusion; cited from earlier work.
Data set [13] relates to Pseudomonas aeruginosa. Kind of data set: Rabbit cornea infection (keratitis) with P. aeruginosa, topical treatment. The format is in vivo. The note with it: 0.5% gentamicin eye drops.
For data set [14] the following is noted: topical application, alkali burn; cited from earlier work.

With `CC(=O)N(O)CCCCCNC(=O)CCC(=O)N(O)CCCCCNC(=O)CCC(=O)N(O)CCCCCN` [desferrioxamine], the “growth inhibition (highest concentration without inhibition)” value in data set [1] is recorded as more than 1 mM. In addition, the biofilm formation entry in data set [2] (1 μM) was “does not affect biofilm formation”. Besides, the values for the complex formation constant in [3], in [4] and in data set [6] were 10^31, ≤ 10^14 and 10^25, respectively. Also, in data set [5] (1 mM), the “killing of cells in six-day old biofilm (propidium iodide staining)” value (“killing of cells in six-day old biofilm” for short) is “does not appear to kill cells in mushroom-like structures”.

`CC(=O)N([O-])CCCCCNC(=O)CCC(=O)N([O-])CCCCCNC(=O)CCC(=O)N([O-])CCCCCN.[Ga+3]` [gallium-desferrioxamine]: in data set [7] (1 mM), the “decrease in cell counts” value is 3-4 log. Further, in data set [1], the “minimal inhibitory concentration (MIC)” value came out at 32 µM. The “reduction of viable Staphylococcus aureus biofilm bacteria” value in data set [8] is “approximately 3 log units”. The biofilm formation entry in data set [2] (1 μM) was “effectively blocked”. The “induction in relative fluorescence compared to non-treated controls” value in data set [9] is given as “four”. The “killing relative to gentamicin” value in data set [10] (1 mM, versus gentamicin 10 μg per ml) is 10-100 times. In addition, in data set [11] (DFO-Ga 1 mM), the log killing amounted to 3.02 log. Besides, the “damage to the retina” value in data set [12] was “reduced damage to the retina”. Moreover, in [5] (1 μM, flow cell), the “biofilm formation under continuous flow” value was “completely blocks biofilm formation”. Also, the “killing of cells in six-day old biofilm” value in [5] (1 mM) is “causes death of cells throughout the mushroom-like structures”.

Turning to `[Ga]` [gallium], in [2] (1 μM), the biofilm formation result was “effectively blocked”. The reduction in fluorescence entry in [9] was “two”. Also, the “killing of cells in six-day old biofilm” value in data set [5] (1 mM) is listed as “killing of cells in the outer regions of the biofilm only”.

Take gentamicin: the “decrease in cell counts” value in data set [7] (50 μg/mL) came out at 2 log. The biofilm formation entry in [2] (0.1 μg per ml) was “does not affect biofilm formation”. The reduction of viability result in data set [10] (gentamicin 10 μg per ml) is listed as “three”. The log killing in [11] (Gm 50 μg/ml) turned out to be 0.95 log. In data set [13], the scarring entry was “significant scarring persists” and the “time to resolution of the infection” value is recorded as not above 120 h. The “killing of cells in six-day old biofilm” value in data set [5] (50 μg/ml) is listed as “killing of cells in the outer regions of the biofilm only”.

Consider zinc-desferrioxamine, for which the “damage to the retina” value in data set [12] was “reduced damage to the retina”. In data set [14], the corneal damage entry is “reduced corneal damage”.
